Among the data in patent US20250270246A1, “LINCOSAMIDES AND USES THEREOF” (President and Fellows of Harvard College, priority 2022, published 2025) are MIC values, retold here.

What all share (assay): MIC by broth microdilution (CLSI)
What all share (format): cell-based

Assay [1] relates to E. coli ATCC 25922 (HAV#006). To be noted: Escherichia coli, ATCC25922, 24 h, read-out: MIC E. coli ATCC 25922. As for the experimental part: (§1) Minimum inhibitory concentrations (MICs) were determined by the broth microdilution method following the Clinical and Laboratory Standards Institute (CLSI) guidelines. Test organisms consisted of standard reference strains from the American Type Culture Collection (ATCC; Manassa, VA, USA) and clinical isolates obtained from JMI Laboratories Inc. (North Liberty, IA, USA), Micromyx repository (MMX; Kalamazoo, MI, USA), and Massachusetts Eye and Ear Hospital (Boston, USA). Before the start of the MIC experiment, standard and test compound stock solutions were prepared in dimethyl sulfoxide (DMSO, Aldrich D2650) at a stock concentration of 2,560 μg/mL. The compound concentration range typically employed for each experiment was 64-0.06 μg/mL (2.5% final DMSO concentration). Iboxamycin was used as a comparator in all experiments. All bacterial strains were sub-cultured on blood agar plates (tryptic soy agar with 5% sheep blood, Hardy Diagnostics) and incubated overnight at 35° C. Organisms were suspended in cation-adjusted Mueller-Hinton broth (CaMHB, BD 212322) and optical density was adjusted to 0.5 McFarland standard. Suspensions were further diluted to obtain a final inoculum of 5×10^5 CFU/mL for broth microdilution experiments. The minimum concentration of compound required to inhibit visible bacterial growth after 24 h of incubation was recorded as the MIC in μg/mL. MICs for P. aeruginosa were recorded in cation-adjusted Mueller-Hinton broth which had been pre-treated with Chelex 100 ion exchange resin according to procedures reported in Ito et al. Antimicrob Agents Chemother (2016) 60 (12), 7396-7401.

In a further assay the test system is S. aureus MMX 3035. Conditions: Staphylococcus aureus, MMX3035, 24 h, read-out: MIC S. aureus MMX 3035. As for the experimental part: as §1
Assay [2] relates to A. baumannii ATCC 19606 (HAV#010). To be noted: Acinetobacter baumannii, ATCC19606, 24 h, read-out: MIC A. baumannii ATCC 19606. How it is done:
as §1

In a further assay the test system is S. aureus Clinical (cfr). Conditions: Staphylococcus aureus, 24 h, read-out: MIC S. aureus Clinical (cfr). As for the experimental part: as §1
The subject of another assay is E. faecium JMI-990536. Conditions: Enterococcus faecium, JMI990536, 24 h, read-out: MIC E. faecium JMI-990536. How it is done:
as §1

Assay [3] concerns S. aureus ATCC 29213 (HAV#001). To be noted: Staphylococcus aureus, ATCC29213, 24 h, read-out: MIC S. aureus ATCC 29213. As for the experimental part: as §1
The test system of assay [4] is E. faecalis ATCC 29212 (HAV#005). Conditions: Enterococcus faecalis, ATCC29212, 24 h, read-out: MIC E. faecalis ATCC 29212. How it is done:
as §1

The test system of another assay is K. pneumoniae JMI-991193. To be noted: Klebsiella pneumoniae, JMI991193, 24 h, read-out: MIC K. pneumoniae JMI-991193. How it is done:
as §1

The test system of a further assay is E. coli lptD mutant. Conditions: Escherichia coli, 24 h, read-out: MIC E. coli lptD mutant, lptD mutant / ΔlptD mutant; CaMHB, 24 h incubation. How it is done:
as §1

Another assay relates to E. coli ΔtolC. To be noted: Escherichia coli, 24 h, read-out: MIC E. coli ΔtolC, ΔtolC; CaMHB, 24 h incubation. How it is done:
as §1

[5] abbreviates: HAV#006, ATCC 25922, CaMHB, 24 h incubation.
The mark [6] stands for this setting: MMX 3035, CaMHB, 24 h incubation.
Setting [7] is: HAV#010, ATCC 19606, CaMHB, 24 h incubation.
Where [8] appears, read: Clinical (cfr), CaMHB, 24 h incubation.
[9] abbreviates: JMI-990536, CaMHB, 24 h incubation.
The mark [10] stands for this setting: HAV#001, ATCC 29213, CaMHB, 24 h incubation.
Setting [11] is: HAV#005, ATCC 29212, CaMHB, 24 h incubation.
Setting [12] is: JMI-991193, CaMHB, 24 h incubation.

Counter-ions that a name gives are not always drawn. Like-named read-outs stand apart in the source and are kept apart here.

Regarding `CC(C)C[C@@H]1CCO[C@@H]2[C@H](CN[C@@H]2C(=O)N[C@@H]2C/C=C\C[C@@H](CN3CCCC3)S[C@H]3O[C@H]2[C@H](O)[C@H](O)[C@H]3O)C1` [FSA1606086, (4S,5aS,8S,8aR)-4-isobutyl-N-((1R,3S,8R,9R,10R,11S,12R,Z)-10,11,12-trihydroxy-3-(pyrrolidin-1-ylmethyl)-13-oxa-2-thiabicyclo[7.3.1]tridec-5-en-8-yl) octahydro-2H-oxepino[2,3-c]pyrrole-8-carboxamide formate salt], the MIC in [1] (setting [5]) was 64 µg/mL; in the assay with S. aureus MMX 3035 (setting [6]), 64 µg/mL; in assay [2] (setting [7]), more than 64 µg/mL; in the assay with S. aureus Clinical (cfr) (setting [8]), more than 64 µg/mL; with E. faecium JMI-990536 (setting [9]), 16 µg/mL; in assay [3] (setting [10]), 16 µg/mL. Moreover, the MIC in [4] (setting [11]) was 16 µg/mL; with K. pneumoniae JMI-991193 (setting [12]), more than 64 µg/mL; in the assay with E. coli lptD mutant, 4 µg/mL; with E. coli ΔtolC it was 2 µg/mL.

For the molecule `CC(C)C[C@@H]1CCO[C@@H]2[C@H](CN[C@@H]2C(=O)N[C@@H]2C/C=C\C[C@@H](CN3CCOCC3)S[C@H]3O[C@H]2[C@H](O)[C@H](O)[C@H]3O)C1` [FSA1607019, (4S,5aS,8S,8aR)-4-isobutyl-N-((1R,3S,8R,9R,10R,11S,12R,Z)-10,11,12-trihydroxy-3-(morpholinomethyl)-13-oxa-2-thiabicyclo[7.3.1]tridec-5-en-8-yl) octahydro-2H-oxepino[2,3-c]pyrrole-8-carboxamide formate salt], the MIC is 4 µg/mL in assay [1] (setting [5]); 8 µg/mL in the assay with S. aureus MMX 3035 (setting [6]); 32 µg/mL in [2] (setting [7]); 16 µg/mL with S. aureus Clinical (cfr) (setting [8]); 4 µg/mL with E. faecium JMI-990536 (setting [9]); 4 µg/mL in assay [3] (setting [10]). The MIC was 2 µg/mL in assay [4] (setting [11]), more than 64 µg/mL in the assay on K. pneumoniae JMI-991193 (setting [12]), 0.5 µg/mL in the assay with E. coli lptD mutant and 0.25 µg/mL with E. coli ΔtolC.

As for `CC(C)C[C@@H]1CCO[C@@H]2[C@H](CN[C@@H]2C(=O)N[C@@H]2C/C=C\C[C@H](CN3CCOCC3)S[C@H]3O[C@H]2[C@H](O)[C@H](O)[C@H]3O)C1` [FSA1607020, (4S,5aS,8S,8aR)-4-isobutyl-N-((1R,3R,8R,9R,10R,11S,12R,Z)-10,11,12-trihydroxy-3-(morpholinomethyl)-13-oxa-2-thiabicyclo[7.3.1]tridec-5-en-8-yl) octahydro-2H-oxepino[2,3-c]pyrrole-8-carboxamide formate salt], the MIC was found to be 8 µg/mL in assay [1] (setting [5]); 16 µg/mL with S. aureus MMX 3035 (setting [6]); 32 µg/mL in assay [2] (setting [7]); 16 µg/mL in the assay on S. aureus Clinical (cfr) (setting [8]); 16 µg/mL with E. faecium JMI-990536 (setting [9]); 4 µg/mL in [3] (setting [10]). For the same molecule, the MIC was 4 µg/mL in [4] (setting [11]), more than 64 µg/mL with K. pneumoniae JMI-991193 (setting [12]), 1 µg/mL in the assay on E. coli lptD mutant and 0.25 µg/mL in the assay with E. coli ΔtolC.

As to `CC(C)C[C@@H]1CCO[C@@H]2[C@H](CN[C@@H]2C(=O)N[C@@H]2C/C=C\C[C@@H](F)CS[C@H]3O[C@H]2[C@H](O)[C@H](O)[C@H]3O)C1` [FSA1607022, (4S,5aS,8S,8aR)—N-((1R,4R,9R,10R,11R,12S,13R,Z)-4-fluoro-11,12,13-trihydroxy-14-oxa-2-thiabicyclo[8.3.1]tetradec-6-en-9-yl)-4-isobutyloctahydro-2H-oxepino[2,3-c]pyrrole-8-carboxamide formate salt], the MIC in assay [1] is 2 µg/mL; in the assay on S. aureus MMX 3035, 4 µg/mL; in [2], 2 µg/mL; in the assay on S. aureus Clinical (cfr), 4 µg/mL; with E. faecium JMI-990536, 1 µg/mL; in assay [3], not above 0.06 µg/mL. Besides, the MIC was not above 0.06 µg/mL in assay [4], 8 µg/mL in the assay with K. pneumoniae JMI-991193, 0.25 µg/mL in the assay on E. coli lptD mutant and 0.25 µg/mL in the assay on E. coli ΔtolC.

In the case of `CC(=O)OC[C@@H]1C/C=C\C[C@@H](NC(=O)[C@H]2NC[C@@H]3C[C@H](CC(C)C)CCO[C@H]32)[C@H]2O[C@H](S1)[C@H](O)[C@@H](O)[C@H]2O` [FSA1607032, ((1R,3S,8R,9R,10R,11S,12R,Z)-10,11,12-trihydroxy-8-((4S,5aS,8S,8aR)-4-isobutyloctahydro-2H-oxepino[2,3-c]pyrrole-8-carboxamido)-13-oxa-2-thiabicyclo[7.3.1]tridec-5-en-3-yl)methyl acetate formate salt], the MIC is 8 µg/mL in assay [1]; 4 µg/mL in the assay on S. aureus MMX 3035; 32 µg/mL in [2]; 16 µg/mL in the assay on S. aureus Clinical (cfr); 2 µg/mL with E. faecium JMI-990536; 0.5 µg/mL in [3]. Further, the MIC was 0.5 µg/mL in assay [4], 64 µg/mL in the assay on K. pneumoniae JMI-991193, 2 µg/mL with E. coli lptD mutant and 0.25 µg/mL in the assay on E. coli ΔtolC.

As for `CC(C)C[C@@H]1CCO[C@@H]2[C@H](CN[C@@H]2C(=O)N[C@@H]2C/C=C\C[C@@H](C(F)F)S[C@H]3O[C@H]2[C@H](O)[C@H](O)[C@H]3O)C1` [FSA1607044, (4S,5aS,8S,8aR)—N-((1R,3S,8R,9R,10R,11S,12R,Z)-3-(difluoromethyl)-10,11,12-trihydroxy-13-oxa-2-thiabicyclo[7.3.1]tridec-5-en-8-yl)-4-isobutyloctahydro-2H-oxepino[2,3-c]pyrrole-8-carboxamide formate salt], the MIC is 8 µg/mL in [1]; 2 µg/mL in the assay with S. aureus MMX 3035; 8 µg/mL in assay [2]; 16 µg/mL in the assay with S. aureus Clinical (cfr); 1 µg/mL in the assay on E. faecium JMI-990536; 0.125 µg/mL in assay [3]. Moreover, the MIC in assay [4] came to 0.125 µg/mL; in the assay on K. pneumoniae JMI-991193, 16 µg/mL; in the assay with E. coli lptD mutant it was 2 µg/mL; in the assay on E. coli ΔtolC, 0.5 µg/mL.

`CC(C)C[C@@H]1CCO[C@@H]2[C@H](CN[C@@H]2C(=O)N[C@@H]2C/C=C\C[C@@H](c3cn(-c4ccccc4)nn3)S[C@H]3O[C@H]2[C@H](O)[C@H](O)[C@H]3O)C1` [FSA1607075, (4S,5aS,8S,8aR)-4-isobutyl-N-((1R,3S,8R,9R,10R,11S,12R,Z)-10,11,12-trihydroxy-3-(1-phenyl-1H-1,2,3-triazol-4-yl)-13-oxa-2-thiabicyclo[7.3.1]tridec-5-en-8-yl) octahydro-2H-oxepino[2,3-c]pyrrole-8-carboxamide formate salt]: the MIC in assay [1] (setting [5]) worked out at 4 µg/mL; in the assay with S. aureus MMX 3035 (setting [6]) it was 4 µg/mL; in assay [2] (setting [7]) it was 8 µg/mL; in the assay with S. aureus Clinical (cfr) (setting [8]), 8 µg/mL; in the assay on E. faecium JMI-990536 (setting [9]), 2 µg/mL; in assay [3] (setting [10]), 2 µg/mL. The MIC in assay [4] (setting [11]) was 2 µg/mL; in the assay on K. pneumoniae JMI-991193 (setting [12]), 32 µg/mL; in the assay with E. coli lptD mutant, 2 µg/mL; with E. coli ΔtolC it was 2 µg/mL.
